Results from patent US8137946B2, “Recombinant GRAS strains expressing thermophilic arabinose isomerase as an active form and method of preparing food grade tagatose by using the same” (CJ Cheiljedang Corporation, priority 2006, dated 2012).
Values joined by “and” are separate entries in the source; they are usually repeats but may differ in a detail not shown here. Identical values can stand only once.

T1: Geobacillus thermodenitrificans arabinose isomerase (mGTAI), recombinant, expressed in and purified from Corynebacterium glutamicum mGTAIC001 (Geobacillus thermodenitrificans, UniProt A4IPA1, C449S/N474K)
T1 sequence (A4IPA1 with tags, fused parts or gaps C449S/N474K): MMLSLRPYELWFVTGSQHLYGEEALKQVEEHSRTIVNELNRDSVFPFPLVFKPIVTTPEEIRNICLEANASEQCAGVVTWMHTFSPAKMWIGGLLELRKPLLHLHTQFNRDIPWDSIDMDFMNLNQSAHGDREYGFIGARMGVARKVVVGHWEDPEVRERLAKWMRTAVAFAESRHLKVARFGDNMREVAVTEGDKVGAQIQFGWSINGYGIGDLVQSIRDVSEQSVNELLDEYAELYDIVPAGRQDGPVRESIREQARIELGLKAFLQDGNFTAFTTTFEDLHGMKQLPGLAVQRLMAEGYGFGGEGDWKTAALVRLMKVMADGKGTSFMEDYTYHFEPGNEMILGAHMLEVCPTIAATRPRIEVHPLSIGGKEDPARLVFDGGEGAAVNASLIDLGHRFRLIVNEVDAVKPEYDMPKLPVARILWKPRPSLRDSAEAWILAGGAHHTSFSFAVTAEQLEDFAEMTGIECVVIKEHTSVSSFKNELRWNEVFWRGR


Legend:
[1] = target: T1, Geobacillus thermodenitrificans arabinose isomerase (mGTAI), recombinant, expressed in and purified from Corynebacterium glutamicum mGTAIC001; test: Enzyme kinetics of purified recombinant arabinose isomerase (isomerization of galactose into tagatose)
Procedure: The culture solution was centrifuged at 8000×g for 10 minutes and cells were recovered. The cells were resuspended in 50 mM Tris-HCl (pH 7.0) buffer, and used for the protein purification. The cell suspension progressed to cell lysis using a high pressure cell homogenizer T-series (4.0 kW; Constant systems, UK), followed by heat-treatment at […] for 20 minutes. Centrifugation was performed at 10,000×g for 10 minutes to separate the expressed recombinant thermophilic arabinose isomerase.
The separated recombinant enzyme solution was filtered by ultrafiltration (MW: 10,000; Sartorius, U.S.A.) and was purified by Q Sepharose Fast Flow (anion exchange column) (staring buffer: 20 mM Tris-HCl, pH 7.5, elution buffer: 20 mM Tris-HCl (pH 7.5)+500 mM NaCl). The protein was purified by FPLC system and it was analyzed by SDS-PAGE.
The activity of the enzyme was measured by the cystein-carbazol-sulfuric acid method (Dische, Z., and E. Borenfreund., A New Spectrophotometric Method for the Detection and Determination of Keto Sugars and Trioses, J. Biol. Chem., 192:583-587, 1951). The fraction contained in the enzyme solution was analysed by SDS-PAGE.
The activity of the enzyme was measured in the reaction buffer (50 mM Tris-HCl, pH 7.0, 1 mM MnCl2 was added) at 55° C. to 85° C. (at intervals of 5° C.). The activity of the enzyme was measured by the cystein-carbazol-sulfuric acid method (Dische, Z., and E. Borenfreund., A New Spectrophotometric Method for the Detection and Determination of Keto Sugars and Trioses, J. Biol. Chem., 192:583-587, 1951).
To measure the enzyme kinetics of purified arabinose isomerase of the present invention, kinetic parameters were determined at 60° C., 65° C. and 70° C. (table 5).

[2] = substrate: OC[C@H]1OC(O)[C@H](O)[C@@H](O)[C@H]1O; test: purified protein, by the assay type

| Molecule | kcat/Km ([1]; 60° C.) | νmax ([1]; 60° C.) | kcat/Km ([1]; 65° C.) | νmax ([1]; 65° C.) | Km increase (times) relative to 60° C. ([1]; 65° C. and 70° C. vs 60° C.) | kcat/Km ([1]; 70° C.) | νmax ([1]; 70° C.) | Km ([2]; other: 60° C.) | kcat/Km ([2]; other: 65° C.) |
| --- | --- | --- | --- | --- | --- | --- | --- | --- | --- |
| OC[C@H]1OC(O)[C@H](O)[C@@H](O)[C@H]1O (stereo partly drawn) [galactose] | 35 M⁻¹ s⁻¹ and 35 ± 0.67 M⁻¹ s⁻¹ | 2.5 U/mg and 2.5 ± 0.07 U/mg | 38.3 ± 0.5 M⁻¹ s⁻¹ | 6.5 U/mg and 6.5 ± 0.57 U/mg | 2.4 times | 53.3 M⁻¹ s⁻¹ and 53.3 ± 0.67 M⁻¹ s⁻¹ | 9.1 U/mg and 9.1 ± 1.42 U/mg |  |  |
| Geobacillus thermodenitrificans arabinose isomerase (mGTAI), recombinant, expressed in and purified from Corynebacterium glutamicum mGTAIC001 (Geobacillus … (protein) MMLSLRPYELWFVTGSQHLYGEEALKQVEEHSRTIVNELNRDSVFPFPLVFKPIVTTPEEIRNICLEANASEQCAGVVTWMHTFSPAKMWIGGLLELRKPLLHLHTQFNRDIPWDSIDMDFMNLNQSAHGDREYGFIGARMGVARKVVVGHWEDPEVRERLAKWMRTAVAFAESRHLKVARFGDNMREVAVTEGDKVGAQIQFGWSINGYGIGDLVQSIRDVSEQSVNELLDEYAELYDIVPAGRQDGPVRESIREQARIELGLKAFLQDGNFTAFTTTFEDLHGMKQLPGLAVQRLMAEGYGFGGEGDWKTAALVRLMKVMADGKGTSFMEDYTYHFEPGNEMILGAHMLEVCPTIAATRPRIEVHPLSIGGKEDPARLVFDGGEGAAVNASLIDLGHRFRLIVNEVDAVKPEYDMPKLPVARILWKPRPSLRDSAEAWILAGGAHHTSFSFAVTAEQLEDFAEMTGIECVVIKEHTSVSSFKNELRWNEVFWRGR |  |  |  |  |  |  |  | 67.0 ± 2.98 mM | 38.3 M⁻¹ s⁻¹ |
